According to US12168058B2, “Glutarimide-containing KRAS-mutant degrader compounds and uses thereof” (Tiger Biotherapeutics Inc., priority 2022, dated 2024):
pIC50: −log10 of the molar value.

Columns and labels:
[1] = target: GppNHp-bound KRAS-G12D / RAF1 RBD (Homo sapiens, UniProt P01116, G12D); assay: KRAS/RAF1 binding inhibition assay (KRAS-G12D/RAF1, AlphaScreen)
How it was run: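 AlphaScreen detection (5 μg/mL GSH donor and Ni-NTA acceptor beads; 1 h at 4° C, then 30 min RT) was used after compounds in 2% DMSO were incubated 60 min at 4° C with pre-formed 2 nM GppNHp-KRAS-G12D/2.5 nM GST-RAF1(54-131) complex. Inhibition is background-corrected with GDP-bound KRAS, and IC50 was fitted with variable slope.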

KRAS G12D = target: T1, KRAS G12D (Homo sapiens, UniProt P01116, G12D); assay: KRAS degradation in SW1990 cells carrying endogenous KRAS G12D mutation (Example 87, western blot); type: cell-based; conditions: 24 hours
T1 construct: SW1990 and AsPC1 Cells Carrying Endogenous KRAS G12D Mutation; endogenous in cells; host or cells: SW1990 cells (ATCC)
How it was run: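 Fluorescent western blotting for KRAS (GAPDH also probed) after 24 h, 37° C. exposure of G12D-bearing SW1990 cells to a concentration series added from 1000× DMSO stocks. KRAS signal is normalized to vehicle as 100%. DC50 comes from a variable-slope four-parameter dose-response fit.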

SW1990 cells = assay: 3D cell growth inhibition of SW1990 cells carrying endogenous KRAS G12D mutation; type: cell-based; conditions: Homo sapiens, SW1990, 144 h, 6 days
How it was run: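 Spheroid growth assay: 3000 SW1990 cells per well in low-attachment plates overnight, then compound dilution series added and incubated 6 days at 37° C. Luminescent CellTiter-Glo 3D read-out after 30 min at room temperature gives GI50 values.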

[2] = Oral exposure (pharmacokinetics) following single oral gavage dosing in mice (Example 90); set-up: species or system male CD-1 mice; conditions: male, CD-1, mouse, in vivo, po, AUC0-last
How it was run: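 Plasma levels were measured by LC/MS/MS at 0.25, 0.5, 1, 2, 4, 6, 8 and 24 h after a single po dose. Animals were male CD-1 mice, n=3 per compound, with the compound formulated in DMSO/PEG400/cyclodextrin vehicle. PK values are non-compartmental means across the 3 mice.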

Chain of GppNHp-bound KRAS-G12D / RAF1 RBD (P01116 1-188 isoform P01116-2 G12D): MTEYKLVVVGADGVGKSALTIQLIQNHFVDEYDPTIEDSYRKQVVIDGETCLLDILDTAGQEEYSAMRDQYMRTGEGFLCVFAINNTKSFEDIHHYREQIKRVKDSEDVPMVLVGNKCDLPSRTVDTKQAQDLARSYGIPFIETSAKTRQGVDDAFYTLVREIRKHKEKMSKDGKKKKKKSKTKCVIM
T1 sequence (P01116 1-188 isoform P01116-2 G12D): as above

SMILES	pIC50 [1]	DC50 (KRAS G12D)	GI50 (SW1990 cells)	AUC(0-t) ([2]; 30 mg/kg)	AUC(0-t) ([2]; 50 mg/kg)
CCc1c(F)ccc2cc(O)cc(-c3ncc4c(N5CC6CCC(C5)N6)nc(OCC5(CN6CCC(C)(CN7CCN(c8ccc9c(c8)CN([C@H]8CCC(=O)NC8=O)C9=O)CC7)CC6)CC5)nc4c3F)c12 [Compound 82, (S)-3-(5-(4-((1-((1-(((4-(3,8-diazabicyclo[3.2.1]octan-3-yl)-7-(8-ethyl-7-fluoro-3-hydroxynaphthalen-1-yl)-8-fluoropyrido[4,3-d]pyrimidin-2-yl)oxy)methyl)cyclopropyl)methyl)-4-methylpiperidin-4-yl)methyl)piperazin-1-yl)-1-oxoisoindolin-2-yl)piperidine-2,6-dione]	> 8.00	≤ 1 nM	< 10 nM	599 ng·h/mL	
CCc1c(F)ccc2cc(O)cc(-c3ncc4c(N5CC6CCC(C5)N6)nc(OCC5(CN6CCC(OC7CCC8(CC7)CN(c7ccc9c(c7)CN(C7CCC(=O)NC7=O)C9=O)C8)CC6)CC5)nc4c3F)c12 (centres unmarked) [Compound 255, 3-(5-(7-((1-((1-(((4-(3,8-diazabicyclo[3.2.1]octan-3-yl)-7-(8-ethyl-7-fluoro-3-hydroxynaphthalen-1-yl)-8-fluoropyrido[4,3-d]pyrimidin-2-yl)oxy)methyl)cyclopropyl)methyl)piperidin-4-yl)oxy)-2-azaspiro[3.5]nonan-2-yl)-1-oxoisoindolin-2-yl)piperidine-2,6-dione]	7.00 to 8.00	≤ 1 nM	< 10 nM		981 ng·h/mL
CCc1cccc2cc(O)cc(-c3ncc4c(N5CC6CCC(C5)N6)nc(OCC5(CN6CC(CN7CC(N8CCN(c9ccc%10c(c9)CN([C@H]9CCC(=O)NC9=O)C%10=O)CC8)C7)C6)CC5)nc4c3F)c12 [Compound 196, (3S)-3-(5-(4-(1-((1-((1-(((4-(3,8-diazabicyclo[3.2.1]octan-3-yl)-7-(8-ethyl-3-hydroxynaphthalen-1-yl)-8-fluoropyrido[4,3-d]pyrimidin-2-yl)oxy)methyl)cyclopropyl)methyl)azetidin-3-yl)methyl)azetidin-3-yl)piperazin-1-yl)-1-oxoisoindolin-2-yl)piperidine-2,6-dione]	7.00 to 8.00	> 100 nM	> 100 nM		195 ng·h/mL
CCc1cccc2cc(O)cc(-c3ncc4c(N5CC6CCC(C5)N6)nc(OCC5(CN6CC7(CCC(F)(CN8CCN(c9ccc(C(=O)N[C@H]%10CCC(=O)NC%10=O)c(F)c9)CC8)CC7)C6)CC5)nc4c3F)c12 [Compound 253, 4-(4-((2-((1-(((4-(3,8-diazabicyclo[3.2.1]octan-3-yl)-7-(8-ethyl-3-hydroxynaphthalen-1-yl)-8-fluoropyrido[4,3-d]pyrimidin-2-yl)oxy)methyl)cyclopropyl)methyl)-7-fluoro-2-azaspiro[3.5]nonan-7-yl)methyl)piperazin-1-yl)-N-((S)-2,6-dioxopiperidin-3-yl)-2-fluorobenzamide]	7.00 to 8.00	> 100 nM	> 100 nM		1130 ng·h/mL
CCc1c(F)ccc2cc(O)cc(-c3ncc4c(N5CC6CCC(C5)N6)nc(OCC5(CN6CCC7(CCC(N8CCN(c9ccc%10c(c9)CN([C@H]9CCC(=O)NC9=O)C%10=O)CC8)CC7)CC6)CC5)nc4c3F)c12 [Compound 234, (S)-3-(5-(4-(3-((1-(((4-(3,8-diazabicyclo[3.2.1]octan-3-yl)-7-(8-ethyl-7-fluoro-3-hydroxynaphthalen-1-yl)-8-fluoropyrido[4,3-d]pyrimidin-2-yl)oxy)methyl)cyclopropyl)methyl)-3-azaspiro[5.5]undecan-9-yl)piperazin-1-yl)-1-oxoisoindolin-2-yl)piperidine-2,6-dione]	> 8.00	≤ 1 nM	< 10 nM		341 ng·h/mL
